Reference: PubChem BioAssay (NCI)
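Interpolation was linear, between the two tested concentrations surrounding the appropriate level; five concentrations were tested over 48 hours in 96-well plates. At the GI50, growth is halved. TGI: concentration producing complete growth inhibition.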

Key:
Experiment in all cases: DTP human tumour cell line panel, 48 h
A498 renal = tested on: A498 renal
ACHN renal = tested on: ACHN renal
BT-549 breast = tested on: BT-549 breast
CCRF-CEM leukemia = tested on: CCRF-CEM leukemia
DU-145 prostate = tested on: DU-145 prostate
EKVX NSCLC = tested on: EKVX NSCLC
HCC-2998 colon = tested on: HCC-2998 colon
HCT-116 colon = tested on: HCT-116 colon
HCT-15 colon = tested on: HCT-15 colon
HL-60(TB) leukemia = tested on: HL-60(TB) leukemia
HOP-92 NSCLC = tested on: HOP-92 NSCLC
HS 578T breast = tested on: HS 578T breast
HT29 colon = tested on: HT29 colon
IGROV1 ovarian = tested on: IGROV1 ovarian
K-562 leukemia = tested on: K-562 leukemia
KM12 colon = tested on: KM12 colon
MALME-3M melanoma = tested on: MALME-3M melanoma
MCF7 breast = tested on: MCF7 breast
MDA-MB-435 = tested on: MDA-MB-435
MOLT-4 leukemia = tested on: MOLT-4 leukemia
NCI-H226 lung = tested on: NCI-H226 lung
NCI-H23 lung = tested on: NCI-H23 lung
NCI-H460 lung = tested on: NCI-H460 lung
NCI-H522 lung = tested on: NCI-H522 lung
NCI/ADR-RES ovarian = tested on: NCI/ADR-RES ovarian
OVCAR-4 ovarian = tested on: OVCAR-4 ovarian
OVCAR-5 ovarian = tested on: OVCAR-5 ovarian
OVCAR-8 ovarian = tested on: OVCAR-8 ovarian
RPMI-8226 leukemia = tested on: RPMI-8226 leukemia
RXF 393 renal = tested on: RXF 393 renal
SF-295 CNS = tested on: SF-295 CNS
SF-539 CNS = tested on: SF-539 CNS
SK-MEL-28 melanoma = tested on: SK-MEL-28 melanoma
SK-MEL-5 melanoma = tested on: SK-MEL-5 melanoma
SK-OV-3 ovarian = tested on: SK-OV-3 ovarian
SNB-19 CNS = tested on: SNB-19 CNS
SNB-75 CNS = tested on: SNB-75 CNS
SR leukemia = tested on: SR leukemia
SW-620 colon = tested on: SW-620 colon
TK-10 renal = tested on: TK-10 renal
U251 CNS = tested on: U251 CNS
UACC-257 melanoma = tested on: UACC-257 melanoma
UACC-62 melanoma = tested on: UACC-62 melanoma
UO-31 renal = tested on: UO-31 renal

Cc1nn(-c2ccccc2)cc1/C=N/Nc1nc(Nc2ccccc2)nc(Nc2ccc(S(N)(=O)=O)cc2)n1
GI50 (A498 renal): 1.71 µM
TGI (A498 renal): 3.39 µM
GI50 (ACHN renal): 1.9 µM
TGI (ACHN renal): 3.57 µM
GI50 (BT-549 breast): 1.85 µM
TGI (BT-549 breast): 4.56 µM
GI50 (CCRF-CEM leukemia): 2.09 µM
TGI (CCRF-CEM leukemia): > 100 µM
GI50 (DU-145 prostate): 3.06 µM
TGI (DU-145 prostate): 9.48 µM
GI50 (EKVX NSCLC): 2 µM
TGI (EKVX NSCLC): 5.09 µM
GI50 (HCC-2998 colon): 1.88 µM
TGI (HCC-2998 colon): 3.63 µM
GI50 (HCT-116 colon): 2 µM
TGI (HCT-116 colon): 4.52 µM
GI50 (HCT-15 colon): 2.67 µM
TGI (HCT-15 colon): > 100 µM
GI50 (HL-60(TB) leukemia): 2.24 µM
TGI (HL-60(TB) leukemia): 7.67 µM
GI50 (HOP-92 NSCLC): 2.44 µM
TGI (HOP-92 NSCLC): 5.44 µM
GI50 (HS 578T breast): 2.77 µM
TGI (HS 578T breast): 8.1 µM
GI50 (HT29 colon): 2.88 µM
TGI (HT29 colon): > 100 µM
GI50 (IGROV1 ovarian): 2.59 µM
TGI (IGROV1 ovarian): 6.7 µM
GI50 (K-562 leukemia): 2.63 µM
TGI (K-562 leukemia): > 100 µM
GI50 (KM12 colon): 2.84 µM
TGI (KM12 colon): 8.33 µM
GI50 (MALME-3M melanoma): 1.6 µM
TGI (MALME-3M melanoma): 3.13 µM
GI50 (MCF7 breast): 1.55 µM
TGI (MCF7 breast): 3.43 µM
GI50 (MDA-MB-435): 1.77 µM
TGI (MDA-MB-435): 3.46 µM
GI50 (MOLT-4 leukemia): 2.29 µM
TGI (MOLT-4 leukemia): > 100 µM
GI50 (NCI-H226 lung): 1.85 µM
TGI (NCI-H226 lung): 4.34 µM
GI50 (NCI-H23 lung): 1.75 µM
TGI (NCI-H23 lung): 3.62 µM
GI50 (NCI-H460 lung): 2.77 µM
TGI (NCI-H460 lung): 7.38 µM
GI50 (NCI-H522 lung): 2.66 µM
TGI (NCI-H522 lung): 8.27 µM
GI50 (NCI/ADR-RES ovarian): > 100 µM
TGI (NCI/ADR-RES ovarian): > 100 µM
GI50 (OVCAR-4 ovarian): 2.56 µM
TGI (OVCAR-4 ovarian): 7.32 µM
GI50 (OVCAR-5 ovarian): 2.06 µM
TGI (OVCAR-5 ovarian): 5.04 µM
GI50 (OVCAR-8 ovarian): 2.05 µM
TGI (OVCAR-8 ovarian): > 100 µM
GI50 (RPMI-8226 leukemia): 1.66 µM
TGI (RPMI-8226 leukemia): 5.41 µM
GI50 (RXF 393 renal): 1.77 µM
TGI (RXF 393 renal): 3.39 µM
GI50 (SF-295 CNS): 2.23 µM
TGI (SF-295 CNS): 5.94 µM
GI50 (SF-539 CNS): 1.71 µM
TGI (SF-539 CNS): 3.27 µM
GI50 (SK-MEL-28 melanoma): 1.8 µM
TGI (SK-MEL-28 melanoma): 3.46 µM
GI50 (SK-MEL-5 melanoma): 1.48 µM
TGI (SK-MEL-5 melanoma): 2.8 µM
GI50 (SK-OV-3 ovarian): 2.93 µM
TGI (SK-OV-3 ovarian): 6.61 µM
GI50 (SNB-19 CNS): 3.44 µM
TGI (SNB-19 CNS): > 100 µM
GI50 (SNB-75 CNS): 2.69 µM
TGI (SNB-75 CNS): 8.72 µM
GI50 (SR leukemia): 2.45 µM
TGI (SR leukemia): > 100 µM
GI50 (SW-620 colon): 3.38 µM
GI50 (TK-10 renal): 1.48 µM
TGI (TK-10 renal): 3.5 µM
GI50 (U251 CNS): 3.65 µM
TGI (U251 CNS): > 100 µM
GI50 (UACC-257 melanoma): 2.5 µM
TGI (UACC-257 melanoma): 7.43 µM
GI50 (UACC-62 melanoma): 1.78 µM
TGI (UACC-62 melanoma): 3.57 µM
GI50 (UO-31 renal): 1.72 µM
TGI (UO-31 renal): 3.54 µM
